According to paper PMC6978316, “Development of chimeric peptides to facilitate the neutralisation of lipopolysaccharides during bactericidal targeting of multidrug-resistant Escherichia coli” (Communications Biology, 2020):
Where a SMILES comes first, the peptide text is derived from it. Bridges are numbered along the chain shown (N, C = ends).

What was measured:
E. coli CVCC1515 = experiment: MIC, microtiter broth dilution; type: cell-based, Escherichia coli; conditions: 37 °C, 16–18 h, three independent experiments
Description: (§1) The MIC values of A6, G6, the parental peptides (N6 and LBP14), LBPN6, scramble controls (N6CK, A6CK, and G6CK), and PMB were determined by the microtiter broth dilution method. The tested strains included Gram-negative bacteria, Gram-positive bacteria, and fungi and were cultured to the logarithmic growth phase, diluted to 10^5 CFU per ml, and added into 96-well plates (90 μl per well). Peptides or antibiotic were diluted with PBS by 2-fold dilution and were added to each well (10 μl per well). Polymyxin B (PMB) and PBS were used as the positive and negative control, respectively. […] All experiments were repeated three times.

S. pullorum CVCC533 = experiment: MIC, microtiter broth dilution; type: cell-based, Salmonella pullorum; conditions: 37 °C, 16–18 h, three independent experiments
Description: as §1

[1] = test system: Enterococcus faecalis CVCC3936; experiment: MIC, microtiter broth dilution; type: cell-based; conditions: 37 °C, 16–18 h, three independent experiments
Description: as §1

[2] = test system: Pseudomonas aeruginosa CICC10419; experiment: MIC, microtiter broth dilution; type: cell-based; conditions: 37 °C, 16–18 h, three independent experiments
Description: as §1

[3] = test system: Staphylococcus aureus ATCC43300; experiment: MIC, microtiter broth dilution; type: cell-based; conditions: 37 °C, 16–18 h, three independent experiments
Description: as §1

[4] = test system: Streptococcus suis CVCC606; experiment: MIC, microtiter broth dilution; type: cell-based; conditions: 37 °C, 16–18 h, three independent experiments
Description: as §1

pepsin = type: in vitro ADME
trypsin = type: in vitro ADME
in vitro = conditions: for peptide remained intact in serum / remaining at 1 h / remaining at 2 h / remaining at 4 h: mice serum, 37 °C, RP-HPLC; for half-life / remaining at 1 h / remaining at 2 h / remaining at 4 h: mouse, serum
Description: The thermal, pH and enzyme stability of A6 and G6 were evaluated against MDR E. coli CVCC195 using a previous method with minor revisions. The N6, A6, and G6 solutions were treated at different temperatures (20–100 °C) for 1 h, dissolved and incubated at different pH values (2–10) for 3 h, or incubated with trypsin or pepsin for 4 h. The inhibition zone diameters were measured after incubation at 37 °C for 18–24 h. The peptides were dissolved in H2O or mice serum at 37 °C to detect their serum stability and samples were removed at different time points to determine their residual activity by the inhibition zone or reverse-phase high-performance liquid chromatography (RP-HPLC) methods[62],[63].

[5] = Biodistribution of FITC-labeled peptides (in vivo fluorescence imaging); conditions: nude mice, FITC-labeled peptide 5 mg per kg intraperitoneally
Description: The nude mice were intraperitoneally injected with 5 mg per kg FITC-labeled A6, G6, and N6, respectively. Free FITC was used as a negative control.

[6] = test system: S. aureus, Enterococcus faecalis, and Streptococcus suis; type: cell-based
Description: as §1

MDR E. coli CVCC195 = experiment: Sepsis mouse model, survival after lethal E. coli challenge; type: in vivo, ICR mice; conditions: mice, E. coli 5 × 10^8 CFU i.p.; 0.25 μmol per kg; 7 d; n = 5
Description: The mouse survival was recorded for 7 d. The mice injected with LPS or saline were used as negative or blank controls, respectively.

[7] = peptide remaining in serum, Mean, 1 h, mean of n = 3 (source data Fig. 2f)
[8] = peptide remaining in serum, Mean, 2 h, mean of n = 3 (source data Fig. 2f)
[9] = peptide remaining in serum, Mean, mean of n = 3 (source data Fig. 2f)

Molecule | MIC (E. coli CVCC1515) [μg per ml] | MIC (S. pullorum CVCC533) [μg per ml] | MIC [1] [μg per ml] | MIC [2] [μg per ml] | MIC [3] [μg per ml] | MIC [4] [μg per ml] | antibacterial activity after pepsin (inhibition zone diameter), Mean (pepsin) | antibacterial activity without enzyme (inhibition zone diameter), Mean (pepsin) | antibacterial activity after trypsin (inhibition zone diameter), Mean (trypsin) | peptide remained intact in serum (in vitro; 1 h) [%] | peptide remained intact in serum (in vitro; 2 h) [%] | half-life (in vitro) [h] | remaining at 1 h (in vitro; [7]) [%] | remaining at 2 h (in vitro; [8]) [%] | remaining at 4 h (in vitro; [9]) [%] | time after injection at which the fluorescence disappeared / peptide was excreted [5] [h] | MICs against S. aureus, Enterococcus faecalis, and Streptococcus suis [6] | remaining at 2 h (in vitro; peptide remained intact in serum, 2 h) [%] | survival rate (MDR E. coli CVCC195) [%]
CC(C)[C@@H]1NC(=O)CNC(=O)[C@H](CC(N)=O)NC(=O)[C@H](CCCNC(=N)N)NC(=O)[C@H](Cc2ccc(O)cc2)NC(=O)[C@H](C(C)C)NC(=O)[C@@H](NC(=O)[C@@H](NC(=O)[C@H](CC(N)=O)NC(=O)[C@H](Cc2c[nH]c3ccccc23)NC(=O)[C@H](C)NC(=O)[C@H](Cc2ccccc2)NC(=O)CNC(=O)[C@H](CO)NC(=O)CNC(=O)CNC(=O)CNC(=O)CNC(=O)[C@H](CCCCN)NC(=O)[C@H](Cc2ccccc2)NC(=O)[C@H](Cc2ccccc2)NC(=O)[C@H](CO)NC(=O)[C@H](C)NC(=O)[C@H](CCCNC(=N)N)NC(=O)[C@@H](NC(=O)[C@H](CCCCN)NC(=O)[C@H](Cc2c[nH]c3ccccc23)NC(=O)[C@H](CCCNC(=N)N)NC(=O)CNC(=O)[C@H](CCC(N)=O)NC(=O)[C@@H](NC(=O)[C@@H](N)CCCNC(=N)N)C(C)C)C(C)C)C(C)C)CSSC[C@@H](C(=O)N[C@@H](Cc2c[nH]cn2)C(=O)N[C@@H](CCCNC(=N)N)C(=O)N[C@@H](CCCNC(=N)N)C(=O)N[C@@H](C)C(=O)N[C@@H](CC(N)=O)C(=O)O)NC(=O)[C@H](C(C)C)NC(=O)[C@H](CCCNC(=N)N)NC1=O [G6] (H-RVQGRWKVRASFFKGGGGSGFAWNVCVYRNGVRVCHRRAN-OH; disulfide 26-35) | 16 | 16 | 16 | 16 | 16 | 16 | 1.607 | 1.439 | 0 | 68.5 | 29.5 | < 2 | 68.6 | 29.6 | 11.2 | 48 | greater than 3.52 μM |  | 
H-RVQGRWKVRASFFKEAAAKEAAAKGFAWNVCVYRNGVRVCHRRAN-OH (disulfide 31-40) [A6] |  |  |  |  |  |  | 1.623 | 1.456 | 0 |  |  | < 2 | 27 | 7.18 | 4.77 | 48 | greater than 3.52 μM | 7 | 
polymyxin B [PMB] |  |  |  |  |  |  |  |  |  |  |  |  |  |  |  |  |  |  | 100
